Results: patent US9540392B2, “Thienopyrimidines” (BAYER PHARMA AKTIENGESELLSCHAFT, priority 2012, dated 2017)

Biological target: T1, human full-length MKNK1 (Homo sapiens, UniProt Q9BUB5, T385D)
T1 construct: GST (N); purchased Carna Biosciences 02-145; host or cells: insect cells (baculovirus expression system)
Test: MKNK1 kinase high ATP assay (TR-FRET)
Type: biochemical
Conditions: 2 mM ATP, after preincubation with MKNK1; read-out: MKNK1 IC50 (MKNK1 high ATP)
Description: MKNK1-inhibitory activity at high ATP of compounds of the present invention after their preincubation with MKNK1 was quantified employing the TR-FRET-based MKNK1 high ATP assay as described in the following paragraphs.
As substrate for the kinase reaction the biotinylated peptide biotin-Ahx-[…] (C-terminus in amide form) was used, which can be purchased e.g. from the company Biosyntan (Berlin-Buch, Germany).
For the assay 50 nL of a 100 fold concentrated solution of the test compound in DMSO was pipetted into a black low volume 384 well microtiter plate (Greiner Bio-One, Frickenhausen, Germany), 2 μL of a solution of MKNK1 in aqueous assay buffer [50 mM HEPES pH 7.5, 5 mM MgCl2, 1.0 mM dithiothreitol, 0.005% (v/v) Nonidet-P40 (Sigma)] was added and the mixture was incubated for 15 min at 22° C. to allow pre-binding of the test compounds to the enzyme before the start of the kinase reaction. Then the kinase reaction was started by the addition of 3 μL of a solution of adenosine-tri-phosphate (ATP, 3.3 mM=>final conc. in the 5 μL assay volume is 2 mM) and substrate (0.1 μM=>final conc. in the 5 μL assay volume is 0.06 μM) in assay buffer and the resulting mixture was incubated for a reaction time of 30 min at 22° C. The concentration of MKNK1 was adjusted depending of the activity of the enzyme lot and was chosen appropriate to have the assay in the linear range, typical concentrations were in the range of 0.003 μg/mL. The reaction was stopped by the addition of 5 μL of a solution of TR-FRET detection reagents (5 nM streptavidine-XL665 [Cisbio Bioassays, Codolet, France] and 1 nM anti-ribosomal protein S6 (pSer236)-antibody from Invitrogen [#44921G] and 1 nM LANCE EU-W1024 Labeled ProteinG [Perkin-Elmer, product no. AD0071]) in an aqueous EDTA-solution (100 mM EDTA, 0.1% (w/v) bovine serum albumin in 50 mM HEPES pH 7.5).
The resulting mixture was incubated for 1 h at 22° C. to allow the formation of complex between the phosphorylated biotinylated peptide and the detection reagents. Subsequently the amount of phosphorylated substrate was evaluated by measurement of the resonance energy transfer from the Eu-chelate to the streptavidine-XL. Therefore, the fluorescence emissions at 620 nm and 665 nm after excitation at 350 nm were measured in a TR-FRET reader, e.g. a Rubystar (BMG Labtechnologies, Offenburg, Germany) or a Viewlux (Perkin-Elmer). The ratio of the emissions at 665 nm and at 622 nm was taken as the measure for the amount of phosphorylated substrate.

T1 sequence (Q9BUB5 1-424 isoform Q9BUB5-2 T344D): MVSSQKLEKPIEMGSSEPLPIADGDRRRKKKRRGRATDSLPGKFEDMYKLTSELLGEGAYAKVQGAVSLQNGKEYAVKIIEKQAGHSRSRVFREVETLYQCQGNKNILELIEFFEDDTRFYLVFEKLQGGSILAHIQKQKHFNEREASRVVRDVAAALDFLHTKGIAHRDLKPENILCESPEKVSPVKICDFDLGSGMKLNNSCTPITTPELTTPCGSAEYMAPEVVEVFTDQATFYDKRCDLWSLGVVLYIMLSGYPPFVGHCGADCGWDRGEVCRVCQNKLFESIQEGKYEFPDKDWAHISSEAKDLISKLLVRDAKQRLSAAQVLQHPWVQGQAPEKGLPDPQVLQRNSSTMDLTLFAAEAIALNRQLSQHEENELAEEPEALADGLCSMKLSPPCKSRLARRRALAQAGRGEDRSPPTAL

Cn1cc(CNC(=O)C2CCc3c(sc4ncnc(Nc5ccc6[nH]ncc6c5)c34)C2)cn1 (racemic) [Example 158, (RS)-4-(1H-indazol-5-ylamino)-N-[(1-methyl-1H-pyrazol-4-yl)methyl]-5,6,7,8-tetrahydro[1]benzothieno[2,3-d]pyrimidine-7-carboxamide]
IC50: 16.5 nM

COc1cc2[nH]ncc2cc1Nc1ncnc2sc3c(c12)CCC(C(=O)N(C)C1CC1)C3 (racemic) [Example 181, (RS)—N—Cyclopropyl-4-[(6-methoxy-1H-indazol-5-yl)amino]-N-methyl-5,6,7,8-tetrahydro[1]benzothieno[2,3-d]pyrimidine-7-carboxamide]
IC50: 0.2 nM

COCCCNC(=O)C1CCc2c(sc3ncnc(Nc4ccc5[nH]ncc5c4)c23)C1 (stereo not drawn) [Example 48, 4-(1H-Indazol-5-ylamino)-N-(3-methoxypropyl)-5,6,7,8-tetrahydro[1] benzothieno [2,3-d]pyrimidine-7-carboxamide]
IC50: 12 nM

CN(C)C1CCN(C(=O)C2CCc3c(sc4ncnc(Nc5ccc6[nH]ncc6c5)c34)C2)C1 (racemic) [Example 205, (RS)-[3-(dimethylamino)pyrrolidin-1-yl][4-(1H-indazol-5-ylamino)-5,6,7,8-tetrahydro[1]benzothieno[2,3-d]pyrimidin-7-yl]methanone]
IC50: 7.3 nM

O=C(NCc1ccc(C(F)(F)F)cc1)C1CCc2c(sc3ncnc(Nc4ccc5[nH]ncc5c4)c23)C1 (stereo not drawn) [Example 28, 4-(1H-Indazol-5-ylamino)-N-[4-(trifluoromethyl)benzyl]-5,6,7,8-tetrahydro[1] benzothieno [2,3-d]pyrimidine-7-carboxamide]
IC50: 4 nM

O=C(NCC(F)(F)F)C1CCc2c(sc3ncnc(Nc4ccc5[nH]ncc5c4)c23)C1 (stereo not drawn) [Example 33, 4-(1H-Indazol-5-ylamino)-N-(2,2,2-trifluoroethyl)-5,6,7,8-tetrahydro[1] benzothieno [2,3-d]pyrimidine-7-carboxamide]
IC50: 5 nM

CC(C)(NC(=O)C1CCc2c(sc3ncnc(Nc4ccc5[nH]ncc5c4)c23)C1)c1ccc(F)cc1 (racemic) [Example 161, (RS)-N-[2-(4-fluorophenyl)propan-2-yl]-4-(1H-indazol-5-ylamino)-5,6,7,8-tetrahydro[1]benzothieno[2,3-d]pyrimidine-7-carboxamide]
IC50: 3.2 nM

COc1cc2[nH]ncc2cc1Nc1ncnc2sc3c(c12)CCC(C(=O)N(C)CC(F)F)C3 (racemic) [Example 170, (RS)—N-(2,2-Difluoroethyl)-4-[(6-methoxy-1H-indazol-5-yl)amino]-N-methyl-5,6,7,8-tetrahydro[1]benzothieno[2,3-d]pyrimidine-7-carboxamide]
IC50: 0.8 nM

CC(C)Oc1cc2[nH]ncc2cc1Nc1ncnc2sc3c(c12)CCC(C(=O)N1CCC2(CC2)C1)C3 (racemic) [Example 261, (RS)-5-Azaspiro[2.4]hept-5-yl{4-[(6-isopropoxy-1H-indazol-5-yl)amino]-5,6,7,8-tetrahydro[1]benzothieno[2,3-d]pyrimidin-7-yl}methanone]
IC50: 2.3 nM

CCOc1cc2[nH]ncc2cc1Nc1ncnc2sc3c(c12)CCC(C(=O)N(C)CCN)C3 (racemic) [Example 271, (RS)-5-({7-[(2-Ammonioethyl)(methyl)carbamoyl]-5,6,7,8-tetrahydro[1]benzothieno[2,3-d]pyrimidin-4-yl}amino)-6-ethoxy-1H-indazol-1-ium bis(trifluoroacetate)]
IC50: 0.4 nM

CCOc1cc2[nH]ncc2cc1Nc1ncnc2sc3c(c12)CCC(C(=O)N1CC=CC1)C3 (racemic) [Example 255, (RS)-2,5-Dihydro-1H-pyrrol-1-yl{4-[(6-ethoxy-1H-indazol-5-yl)amino]-5,6,7,8-tetrahydro[1]benzothieno[2,3-d]pyrimidin-7-yl}methanone]
IC50: 0.3 nM

Cn1cc(NC(=O)C2CCc3c(sc4ncnc(Nc5ccc6[nH]ncc6c5)c34)C2)cn1 (racemic) [Example 146, (RS)-4-(1H-indazol-5-ylamino)-N-(1-methyl-1H-pyrazol-4-yl)-5,6,7,8-tetrahydro[1]benzothieno[2,3-d]pyrimidine-7-carboxamide]
IC50: 26.4 nM

CCOc1cc2[nH]ncc2cc1Nc1ncnc2sc3c(c12)CCC(C(=O)N1CCC(C#N)C1)C3 (racemic) [Example 265, (3RS)-1-({(7RS)-4-[(6-Ethoxy-1H-indazol-5-yl)amino]-5,6,7,8-tetrahydro[1]benzothieno[2,3-d]pyrimidin-7-yl}carbonyl)pyrrolidine-3-carbonitrile]
IC50: 1.2 nM

CN(Cc1ccncc1)C(=O)C1CCc2c(sc3ncnc(Nc4ccc5[nH]ncc5c4)c23)C1 (stereo not drawn) [Example 26, 4-(1H-Indazol-5-ylamino)-N-methyl-N-(pyridin-4-ylmethyl)-5,6,7,8-tetrahydro[1] benzothieno [2,3-d]pyrimidine-7-carboxamide]
IC50: 3 nM

O=C(C1CCc2c(sc3ncnc(Nc4ccc5[nH]ncc5c4)c23)C1)N1CCCC1CO (racemic) [Example 186, (RS)-[2-(hydroxymethyl)pyrrolidin-1-yl][4-(1H-indazol-5-ylamino)-5,6,7,8-tetrahydro[1]benzothieno[2,3-d]pyrimidin-7-yl]methanone]
IC50: 40.6 nM

CN1CCCN(C(=O)C2CCc3c(sc4ncnc(Nc5ccc6[nH]ncc6c5)c34)C2)CC1 (racemic) [Example 118, (RS)-[4-(1H-indazol-5-ylamino)-5,6,7,8-tetrahydro[1]benzothieno[2,3-d]pyrimidin-7-yl](4-methyl-1,4-diazepan-1-yl)methanone]
IC50: 13.2 nM

CN1CCN(CCNC(=O)C2CCc3c(sc4ncnc(Nc5ccc6[nH]ncc6c5)c34)C2)CC1 (racemic) [Example 144, (RS)-4-(1H-indazol-5-ylamino)-N-[2-(4-methylpiperazin-1-yl)ethyl]-5,6,7,8-tetrahydro[1]benzothieno[2,3-d]pyrimidine-7-carboxamide]
IC50: 21.7 nM

CCOc1cc2[nH]ncc2cc1Nc1ncnc2sc3c(c12)CCC(C(=O)N1CCN2CCCCC2C1)C3 (racemic) [Example 270, {(7RS)-4-[(6-Ethoxy-1H-indazol-5-yl)amino]-5,6,7,8-tetrahydro[1]benzothieno[2,3-d]pyrimidin-7-yl}[(9aRS)-octahydro-2H-pyrido[1,2-a]pyrazin-2-yl]methanone]
IC50: 0.4 nM

O=C(C1CCc2c(sc3ncnc(Nc4ccc5[nH]ncc5c4)c23)C1)N1CCCC(CO)C1 (racemic) [Example 88, (RS)-[3-(hydroxymethyl)piperidin-1-yl][4-(1H-indazol-5-ylamino)-5,6,7,8-tetrahydro[1]benzothieno[2,3-d]pyrimidin-7-yl]methanone]
IC50: 9.9 nM

O=C(Nc1cc[nH]n1)C1CCc2c(sc3ncnc(Nc4ccc5[nH]ncc5c4)c23)C1 (racemic) [Example 89, (RS)-4-(1H-indazol-5-ylamino)-N-(1H-pyrazol-3-yl)-5,6,7,8-tetrahydro[1]benzothieno[2,3-d]pyrimidine-7-carboxamide]
IC50: 24.1 nM

COc1ccc(CCNC(=O)C2CCc3c(sc4ncnc(Nc5ccc6[nH]ncc6c5)c34)C2)cc1 (stereo not drawn) [Example 25, 4-(1H-Indazol-5-ylamino)-N-[2-(4-methoxyphenyl)ethyl]-5,6,7,8-tetrahydro[1] benzothieno [2,3-d]pyrimidine-7-carboxamide]
IC50: 3 nM
